# From patent US20240148749A1 (priority 2021, published 2024)
# What was measured:
# [1] = tested on: CLP mice; experiment: Survival after cecal ligation and puncture (CLP) model of sepsis; type: in vivo, mouse; conditions: CLP-MnTBAP mice, 24 h after CLP; MnTBAP 10 mg/kg IP every 12 h for 48 h
# Procedure: A log-rank (Mantel-Cox) p value for trend was calculated.
# (§1) We used peritonitis induced by CLP as a model of sepsis (Rittirsch et al., 2009). Briefly, animals were anesthetized with ketamine (Imalgene® 1000 100 mg/kg, Merial, France) and Xylazine (Rompun® 2% 20 mg/kg, Bayer, Germany) prior to surgery. After laparotomy, caecum was ligatured at the distal third with a 4.0 suture and the distal part was perforated twice with a 21 Gauge needle.
# For use it is dissolved following the guidance provided by the manufacturer.
# Clinical score was assessed 6, 12 and 24 hours and 21 days after CLP using a modified SmithKline Beecham, Harwell, Imperial College and Royal London Hospital phenotype assessment (SHIRPA) (Rogers et al., 1997) of the maximum score of fourteen. Weight, temperature and locomotor activity using an open field box were measured at the same time points. We determined survival rate twice a day for 21 days after CLP. The symptoms included in the a modified SmithKline Beecham, Harwell, Imperial College and Royal London Hospital phenotype assessment (SHIRPA) are tremors, periorbital exudates, piloerection, lethargy, vocalisation, positional passivity, no escapement to threat, long transfer arousal and diarrhoea. Each condition was scored from 0 to 2.
# Experimental protocols were conducted in accordance with the French and European regulations on Animal Welfare and with Public Health Service recommendations. The experiments were performed on C57BL/6JRj mice (male and female) purchased from Janvier Laboratory. Mice were housed in cages in groups of 7, in a temperature (22±1.5° C.) and humidity-controlled environment, with a 12 h light/dark cycle. All animals used in the study were between 10 and 12 weeks old. Sample-size estimates for animal experiments were based on prior animal-modelling studies used in the Unit for the investigation of caecal ligation and puncture (CLP).
# At the end, two groups were compared: CLP-Placebo, CLP-BMX-010. We determined survival rate twice a day for 4 days after CLP.”
# [2] = tested on: Cd11b+ microglial cells; experiment: Gene expression of microglial immuno-phenotype markers (RT-qPCR) in Cd11b+ microglial cells sorted from brain at 21 days; type: in vivo, mouse
# Procedure: as §1
# MnTBAP is commercially available: it is for example manufactured by Sigma-Aldrich, Calbiochem, etc. For use it is dissolved following the guidance provided by the manufacturer.
# Brains were collected for cell dissociation and Cdllb-positive cell separation using a magnetic coupled antibody (MACS® Technology), according to the manufacturer's protocol (Miltenyi Biotec, Bergisch Gladbach, Germany) and as previously described (Schang et al., 2014). In brief, mice were intracardially perfused with NaCl 0,9%. The brains are then dissociated using the Neural Tissue Dissociation Kit containing trypsin and the gentleMACS Octo Dissociator with Heaters. From the resulting brain homogenate, cd11 b-positive cells were enriched using the anti-cd11 b MicroBeads. After elution the isolated cells were centrifuged for 5 min at 200G and conserved at −80° C.
# Total RNA was isolated from cells using the RNAeasy Micro kit (Qiagen), and reverse-transcribed using Superscript® III Reverse transcriptase (Invitrogen). Real-time quantitative PCR was performed in duplicate for each sample using Power Sybr Green PCR Master Mix (Applied Biosystems) and the rate of dye incorporation was monitored using the StepOne™ Plus RealTime PCR system (Applied Biosystems). Data were analyzed by StepOne Plus RT PCR software v2.1 and Microsoft excel. Amplification specificity was assessed with a melting curve analysis. TBP transcript levels were used for normalisation of each target (=ΔCT). Real-time PCR CT values were analyzed using the 2^−(ΔCt) method to calculate the fold expression (Schmittgen et al., 2008). The data are presented as relative mRNA units with respect to control group (expressed as fold over control value). Primer sequences available upon request.
# We have adopted nomenclature consistent with previous work in microglia (Chhor et al., 2013). We distinguished 3 types of phenotypes according to the mRNA expression levels of markers listed in brackets: pro-inflammatory phentoype (Ptgs2, Cd32, Cd86), alternative phenotype (Lgals3, Igf1 and CD206) and immunoregulatory phenotype (II1rn, II4ra, Socs3).
# Quantification of pro-inflammatory markers (CD32, CD86 and Ptgs2 mRNA), anti-inflammatory markers (Lgals3, IGF1 and CD206 mRNA) and immuno-regulator markers (IL1-RA, IL4-Rα and SOCS3 mRNA) by RT-qPCR in Cd11b+ microglial cells magnetically sorted from the brain at 21 days. Control mice were non-operated but anesthetized. The data shown represent median values of n=5 mice per group. Two-way analyses of variance (ANOVAs) CLP vs Control×MnTBAP vs Placebo were performed. […] Data are represented as fold changes using the 2-ΔΔCT method.
smiles,measurement,setting,value
"O=C(O)c1ccc(/C2=C3\C=CC(=N3)/C(c3ccc(C(=O)O)cc3)=c3/cc/c4[n]3[Mn]([Cl])[n]3c2ccc3/C(c2ccc(C(=O)O)cc2)=C2/C=CC(=N2)\C=4c2ccc(C(=O)O)cc2)cc1 [MnTBAP, Manganese (III) tetrakis (4-benzoic acid)porphyrin chloride]",mice alive,[1],66%
same,IL1β expression in microglial cells,"[2]; CLP-MnTBAP group vs CLP-placebo group, p=0.01, did not differ from Control-placebo",significantly lower
same,Lgals3 (M2a) gene expression in microglial cells,"[2]; CLP-MnTBAP group vs CLP-placebo group, p=0.023, did not differ from Control-placebo",significantly lower
same,microglial immunophenotype,[2]; MnTBAP alone (control mice),did not alter
same,microglial immunoprofile,[2]; septic mice,shifts microglial immunoprofile from a neurotoxic toward a neuroprotective phenotype
same,Ptgs2 (M1 marker) transcripts in microglial cells,"[2]; septic mice, MnTBAP compared to the placebo group, p=0.026, did not differ from Control-placebo",significantly reduced
same,IL1RA (M2b marker) transcripts in microglial cells,"[2]; septic mice, MnTBAP compared to the placebo group, p=0.047, did not differ from Control-placebo",significantly reduced
